Test results: PMC4969531, “Enhanced Absorption Study of Ginsenoside Compound K (20-O-β-(D-Glucopyranosyl)-20(S)-protopanaxadiol) after Oral Administration of Fermented Red Ginseng Extract (HYFRG™) in Healthy Korean Volunteers and Rats” (Evidence-based Complementary and Alternative Medicine : eCAM, 2016)

How the values were obtained:
[1] = Stability of compound K in human plasma (bench-top, refrigerator, freezer, freeze-thaw, extracted samples); type: in vitro ADME; conditions: n = 3; for Stability of extracted, autosampler (4°C), 20 h: extracted plasma sample; for Compound K in plasma, 4°C, 17 h / Compound K in plasma, room temperature, 17 h / Compound K in plasma, −80°C, 17 h / Freeze-thaw stability, three cycles, −80°C: human plasma
Description: The LC-MS/MS method to determine compound K in human and rat plasma was validated and established in terms of specificity, sensitivity, linearity, accuracy, precision, recovery, matrix effect, and stability according to the bioanalytical method validation guidelines published by Korea Food and Drug Administration (KFDA) and USFDA [23, 24]. The specificity of the method towards endogenous plasma matrix substances was assessed in double blank human plasma (without compound K and IS). Double blank samples from six different lots of human blank plasma were tested for the presence of endogenous substances, which may interfere with compound K and IS using described above procedures and chromatographic/spectroscopic conditions. Then, the chromatograms obtained from the sample spiked with compound K at lower limit of quantitation (LLOQ) and IS and actual plasma samples from a volunteer after oral administration of compound K were compared with those obtained from blank samples. The calibration curve was constructed by plotting the peak area ratios (y) of compound K to IS against the spiked concentrations (x) of compound K. Linearity was assessed by weighted (1/x) least squares regression analysis. LLOQ was defined as the lowest concentration on the calibration curve. It should be quantified with an acceptable bias within ±20% and a CV no greater than 20%. The LLOQ was determined as the concentrations with a signal to noise (S/N) ratio of 10. The intra- and interday precision and accuracy assessments were performed on the same day (n = 5, at each concentration) and on three consecutive days at four concentrations ([…]). Precision is expressed as a coefficient of variance (CV) at each concentration. The accuracy of the assay was defined as a percentage of the measured concentration over the theoretical concentration. The acceptance criterion recommended by KFDA and USFDA for each back-calculated standard concentration is 20% deviation from the nominal for LLOQ and 15% for all others (KFDA 2013, USFDA 2013). The relative recovery, absolute matrix effect, and process efficiency were determined at three QC concentrations (3, 300, and 800 ng/mL, n = 3) of compound K and IS (500 ng/mL, n = 9). The relative recovery was measured by comparing the peak areas obtained from plasma samples spiked before extraction with those from plasma samples spiked after extraction. The absolute matrix effect was measured by comparing the peak response of plasma samples spiked after extraction with that of pure standards containing equivalent amounts of compound K and IS prepared in mobile phase. The process efficiency wasmeasured by comparing the peak response of plasma samples spiked before extraction with that of the pure standards containing equivalent amounts of compound K and IS prepared in mobile phase. […] The predicted concentrations of compound K at 3, 300, and 800 ng/mL samples differed by not more than 15% of the nominal concentrations in a set of stability tests, namely, in injector (20 h), bench-top (17 h), three repeated freeze-thaw cycles, and freezer stability at −80°C for 17 h. […] Although several analytical methods have been used to determine compound K concentrations in human plasma with LC-MS/MS using solid phase extraction or protein precipitation, we developed the fully validated analytical method optimized for our laboratory settings to meet both KFDA and USFDA guidelines for validating a bioanalytical method. Our analytical method was successfully used to evaluate the comparative pharmacokinetics of two red ginseng HYFRG or RG extracts in Koreans.

[2] = Stability of compound K working stock solution in methanol; type: physicochemical; conditions: n = 3
Description: Stock solutions of compound K and IS were prepared separately by dissolving the accurately weighed compounds in methanol for a final concentration of 1000 μg/mL. The prepared stock solutions were stored in −80°C when not in use. Working solutions of compound K were prepared by serial dilution of the stock solution in methanol. Calibration standards were prepared by spiking 10 μL of the appropriate standard solutions to 190 μL of blank plasma for concentrations of 1, 5, 10, 50, 100, 500, and 1000 ng/mL. QC samples were prepared in the same manner as the calibration standards, for low, middle, and high concentrations of 3, 300, and 800 ng/mL. IS working solution (5 μg/mL) for routine use was freshly prepared by diluting IS stock solution in methanol. The standard and QC samples were extracted on each analysis run using the same procedure described below. […] The specificity of the method towards endogenous plasma matrix substances was assessed in double blank human plasma (without compound K and IS). […] Then, the chromatograms obtained from the sample spiked with compound K at lower limit of quantitation (LLOQ) and IS and actual plasma samples from a volunteer after oral administration of compound K were compared with those obtained from blank samples. The calibration curve was constructed by plotting the peak area ratios (y) of compound K to IS against the spiked concentrations (x) of compound K. Linearity was assessed by weighted (1/x) least squares regression analysis. […] It should be quantified with an acceptable bias within ±20% and a CV no greater than 20%. The LLOQ was determined as the concentrations with a signal to noise (S/N) ratio of 10. […] Precision is expressed as a coefficient of variance (CV) at each concentration. The accuracy of the assay was defined as a percentage of the measured concentration over the theoretical concentration. The acceptance criterion recommended by KFDA and USFDA for each back-calculated standard concentration is 20% deviation from the nominal for LLOQ and 15% for all others (KFDA 2013, USFDA 2013). […]

Compound: CC(C)=CCCC(C)(OC1OC(CO)C(O)C(O)C1O)C1CCC2(C)C1C(O)CC1C3(C)CCC(O)C(C)(C)C3CCC12C [Compound K, 20-O-β-(D-glucopyranosyl)-20(S)-protopanaxadiol]
- Stability of extracted, autosampler (4°C), 20 h ([1]; nominal 3 ng/mL): 110.43 ± 12.89%
- Compound K in plasma, 4°C, 17 h ([1]; nominal 3 ng/mL): 112.11 ± 5.08%
- Compound K in plasma, room temperature, 17 h ([1]; nominal 3 ng/mL): 110.12 ± 3.01%
- Compound K in plasma, −80°C, 17 h ([1]; nominal 3 ng/mL): 115.04 ± 2.66%
- Freeze-thaw stability, three cycles, −80°C ([1]; nominal 3 ng/mL): 109.09 ± 7.07%
- Stability of extracted, autosampler (4°C), 20 h ([1]; nominal 300 ng/mL): 102.96 ± 4.83%
- Compound K in plasma, 4°C, 17 h ([1]; nominal 300 ng/mL): 110.62 ± 2.31%
- Compound K in plasma, room temperature, 17 h ([1]; nominal 300 ng/mL): 106.83 ± 3.20%
- Compound K in plasma, −80°C, 17 h ([1]; nominal 300 ng/mL): 108.30 ± 1.60%
- Freeze-thaw stability, three cycles, −80°C ([1]; nominal 300 ng/mL): 109.70 ± 2.38%
- Stability of extracted, autosampler (4°C), 20 h ([1]; nominal 800 ng/mL): 103.46 ± 3.48%
- Compound K in plasma, 4°C, 17 h ([1]; nominal 800 ng/mL): 107.40 ± 2.45%
- Compound K in plasma, room temperature, 17 h ([1]; nominal 800 ng/mL): 107.54 ± 0.20%
- Compound K in plasma, −80°C, 17 h ([1]; nominal 800 ng/mL): 104.95 ± 1.42%
- Freeze-thaw stability, three cycles, −80°C ([1]; nominal 800 ng/mL): 106.13 ± 5.46%
- Working stock solution stability, room temperature, 6 h ([2]; nominal 3 ng/mL): 89.08 ± 3.89%
- Working stock solution stability, room temperature, 6 h ([2]; nominal 300 ng/mL): 89.11 ± 7.13%
- Working stock solution stability, room temperature, 6 h ([2]; nominal 800 ng/mL): 96.13 ± 7.43%
